Measured values reported in US20020035139A1, “COX-2 inhibitors and the prevention of the side effects of radiation therapy” (priority 2000, published 2002).

Legend:
PC-3 cells = conditions: cited from earlier work
[1] = cited from earlier work
[2] = clinical observations during pelvic radiation for prostate carcinoma; type: in vivo, patients
Source text: The present invention originated with observations made during pelvic radiation for prostate carcinoma.

[3] = PC-3 cells irradiated in the presence or absence of the inhibitor

CS(=O)(=O)Nc1ccc([N+](=O)[O-])cc1OC1CCCCC1 [NS-398]
prostaglandin (PGE(2)) level in irradiated cells (PC-3 cells; PC-3 cells irradiated in the presence of the inhibitor): reduced PGE(2) levels
apoptosis (PC-3 cells; [3]): no differences
cell cycle distribution (PC-3 cells; [3]): no differences

NCCCNCCSP(=O)(O)O [Ethiol]
dry mouth following radiation treatment ([1]; head and neck cancer): decrease the dry mouth
acute mucosal effects ([1]; radiotherapy): does not limit acute mucosal effects

CS(=O)(=O)c1ccc(C2=C(c3ccccc3)C(=O)OC2)cc1 [Vioxx, rofecoxib]
fatigue associated with radiotherapy [2]: decrease
acute mucosal effects of radiation ([2]; urinary and gastrointestinal tracts, during radiotherapy): decrease the acute mucosal effects of radiation
